Test system: calf thymus DNA (CT DNA)
Assay: UV-visible spectral study with CT DNA
Type: binding
Conditions: 10 μM compound, 200 nM CT DNA additions
Experimental: UV-visible spectroscopy was carried out to determine the binding mode of β-carboline derivatives to DNA (CT DNA) using UV-2500 spectrophotometer (Shimadzu, Kyoto, Japan) at 25 °C. Stock solutions of 10 mM β-carboline derivatives were dissolved in DMSO, and 10 μM CT DNA was prepared in 100 mM KBPES buffer (30 mM Potassium Phosphate with 100 mM KCl, pH 7.0). UV-visible absorption titrations were performed by adding 200 nM CT DNA solution to the quartz cuvette containing approximately 10 μM derivative solutions. UV-Visible absorption spectra were recorded from 200 nm to 350 nm.
Figure 5 UV-visible spectroscopy study of β-carbolines with calf thymus (CT) DNA. UV-visible absorption titrations were done by adding 200 nM CT DNA solution each time to the quartz cuvette containing 10 μM 4B, 6i, 4D, and 6u. The absorption spectra were recorded from 200 nm to 350 nm.

SMILES: COC(=O)c1cc2c3ccccc3n(Cc3ccccc3F)c2cn1 [Compound 4D]
- Intercalation ability (UV-visible spectra with CT DNA): very weak

— article PMC6214108, “Synthesis and In Vitro Antitumor Activity of Novel Bivalent β-Carboline-3-carboxylic Acid Derivatives with DNA as a Potential Target” (International Journal of Molecular Sciences, 2018)
